Data as given in patent US20060239999A1, “Preventive and/or therapeutic drugs for asthma” (priority 2002, published 2006).

What was measured:
[1] = tested on: BALB/c male mice; experiment: Suppressive effect on antigen-induced airway hyperreactivity (methacholine inhalation); format: in vivo; conditions: for airway hyperreactivity suppressed as compared with the positive control group: compound 1 100 mg/kg orally, prednisolone 30 mg/kg orally; for AUC of airway hyperreactivity: methacholine 1.5 to 25 mg/ml, compound 1 100 mg/kg orally 1 hour before and 6 hours after each antigen, prednisolone 30 mg/kg orally once before each antigen, mean value±standard error
Experimental: (§1) Suspention prepared by mixing of 50 μg of ovalbumin and 1 mg of aluminum hydroxide in a physiological saline solution (Otsuka Physiological Saline; manufactured by Otsuka. Pharmaceutical) was intraperitoneally administered to BALB/c male mice (7 weeks age) for two times with an interval of one week to sensitize and, after 14, 18 and 22 days from the final sensitization, 1% solution of ovalbumin in a physiological saline solution or a physiological saline solution (a negative control group) was inhaled for 30 minutes respectively to induce an antigen-antibody reaction. In the case of measurement of bronchoconstriction, compound 1 was suspended in a 0.5% aqueous solution of methylcellulose (solvent) and, 1 hour before inhalation of antigen after 14 days from the final sensitization 100 mg/kg of the suspention was orally administered or, 5 minutes before that, 30 mg/kg was intraperitoneally administered. In the case of measurement of airway hyperreactivity or eosinophil infiltration in airway, compound 1 was suspended as mentioned above and, after 14, 18 and 22 days from the final sensitization, 100 mg/kg of the suspention was orally administered 1 hour before and 6 hours after inhalation of each antigen. As a reference drug, prednisolone which is a steroid used for the treatment of asthma was orally administered at a dose of 30 mg/kg (as a solution being suspended in 0.5% aqueous solution of methylcellulose) once, 1 hour before inhalation of each antigen after 14, 18 and 22 days from the final sensitization. In a positive control group, the solvent was administered instead of a suspension of a test compound. […]
(§2) With regard to the bronchoconstriction, airway resistance (penh) was evaluated by a measuring apparatus for respiration function of mice (BioSystems XA; Buxco Electronics, Inc., Sharon, Conn., U.S.A.) for 30 minutes from immediately after inhalation of antigen after 14 days from the final sensitization and evaluation was conducted by calculating the area under curve during the 30 minutes (AUC0-30 min). Further, after 24 hours from final inhalation of antigen, airway hyperreactivity and eosinophil infiltration in bronchoalveolar lavage fluid were evaluated.
(§3) With regard to eosinophil filtration, total cell numbers in the bronchoalveolar lavage fluid were measured by an automatic measuring apparatus for blood cell count (Celltac α MEK-6158; Nippon Koden, Tokyo), then the smears were prepared by Cytospin 3 (Shandon, Inc., Pittsburgh, Pa., U.S.A.) and evaluation was conducted by a morphological classification under a microscope. Eosinophil numbers were calculated by multiplying the total cell numbers by percentage of eosinophil cells. […]

[2] = tested on: BALB/c male mice; experiment: Suppressive effect on antigen-induced bronchoconstriction (airway resistance penh); format: in vivo; conditions: for AUC0-30min of the bronchoconstriction: ovalbumin-sensitized mice, mean value±standard error
Experimental: Suspention prepared by mixing of 50 μg of ovalbumin and 1 mg of aluminum hydroxide in a physiological saline solution (Otsuka Physiological Saline; manufactured by Otsuka. Pharmaceutical) was intraperitoneally administered to BALB/c male mice (7 weeks age) for two times with an interval of one week to sensitize and, after 14, 18 and 22 days from the final sensitization, 1% solution of ovalbumin in a physiological saline solution or a physiological saline solution (a negative control group) was inhaled for 30 minutes respectively to induce an antigen-antibody reaction. In the case of measurement of bronchoconstriction, compound 1 was suspended in a 0.5% aqueous solution of methylcellulose (solvent) and, 1 hour before inhalation of antigen after 14 days from the final sensitization 100 mg/kg of the suspention was orally administered or, 5 minutes before that, 30 mg/kg was intraperitoneally administered. In the case of measurement of airway hyperreactivity or eosinophil infiltration in airway, compound 1 was suspended as mentioned above and, after 14, 18 and 22 days from the final sensitization, 100 mg/kg of the suspention was orally administered 1 hour before and 6 hours after inhalation of each antigen. As a reference drug, prednisolone which is a steroid used for the treatment of asthma was orally administered at a dose of 30 mg/kg (as a solution being suspended in 0.5% aqueous solution of methylcellulose) once, 1 hour before inhalation of each antigen after 14, 18 and 22 days from the final sensitization. In a positive control group, the solvent was administered instead of a suspension of a test compound. (In the case of measurement of bronchoconstriction, the solvent was administered once, 1 hour before inhalation of antigen after 14 days from the final sensitization as for oral administration, or the solvent was administered once 30 minutes before inhalation of antigen after 14 days from the final sensitization as for intraperitoneal administration. In the case of measurement of airway hyperreactivity and eosinophil infiltration in airway, the solvent was administered 1 hour before and 6 hours after inhalation of each antigen after 14, 18 and 22 days from the final sensitization.)
as §2

[3] = tested on: BALB/c male mice; experiment: Suppressive effect on antigen-induced eosinophil infiltration in airway (bronchoalveolar lavage fluid); format: in vivo; conditions: for Eosinophil numbers in bronchoalveolar lavage fluid: 24 hours after final antigen inhalation, compound 1 100 mg/kg orally 1 hour before and 6 hours after each antigen, prednisolone 30 mg/kg orally once before each antigen; for eosinophil numbers decreased as compared with the positive control group: compound 1 100 mg/kg orally, prednisolone 30 mg/kg orally
Experimental: as §1, §2, §3

[4] = biological target: T1, GPR4 (Homo sapiens, UniProt P46093); experiment: Antagonistic action on GPR4 (luciferase reporter in GPR4 assay cells induced by 17β-estradiol); format: cell-based; conditions: 10 nmol/L 17β-estradiol, 6 hours, luciferase luminescence
T1 construct: expressed in transfected cells; host or cells: KJMGER8 (Namalwa KJM-1 human B-cell line stably expressing Gal4-ER), co-transfected with pAGal9-GPR4 and the CRE-luciferase reporter pACREpluc
T1 sequence (P46093 whole entry, the tested form may be a part): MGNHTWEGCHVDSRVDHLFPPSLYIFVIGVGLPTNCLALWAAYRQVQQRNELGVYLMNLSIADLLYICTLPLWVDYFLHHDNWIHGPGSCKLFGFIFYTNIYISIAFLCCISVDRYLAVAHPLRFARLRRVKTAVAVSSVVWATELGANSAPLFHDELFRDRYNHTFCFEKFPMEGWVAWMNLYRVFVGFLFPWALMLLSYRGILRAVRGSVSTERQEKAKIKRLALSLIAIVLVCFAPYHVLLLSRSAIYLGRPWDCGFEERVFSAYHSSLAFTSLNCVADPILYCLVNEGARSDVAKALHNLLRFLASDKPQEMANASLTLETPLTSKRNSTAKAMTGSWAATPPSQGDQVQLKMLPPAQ
Experimental: Cells for GPR4 assay prepared in Referential Example 61 (said assay cells express GPR4 by stimulation with 17β-estradiol) were seeded on white plates at the rate of 10^5 cells/well, and a solution where 17β-estradiol (manufactured by Sigma) was diluted with a medium so as to make 10 nmol/L in the reaction solution and test compounds were added to the plate and the mixture was incubated at 37° C. for 6 hours in a 5% CO2 incubator. After that, a Steady Glo Luciferase Assay System (manufactured by Promega) solution was added to stop the reaction and the amount of luminescence during one second was measured using a Top Count (Packard, Meriden, Conn., U.S.
Activity of the each of test compounds (antagonistic action) was expressed by an inhibition rate calculated on the basis of counts per second in the presence or absence of 17β-estradiol as shown by the following formula. IC50 value was calculated from the inhibition rate by a linear approximate analysis of the Logit-Log conversion method.
In the formula, A, B and C each have the following meaning, respectively.
A: counts per second when 17β-estradiol and the test compound were added
B: counts per second when neither 17β-estradiol nor the test compound was added
C: counts per second when only 17β-estradiol was added
Inhibition Rate (%) [1−{(A−B)/(C−B)}]×100
1 μg of mRNA derived from human lung (manufactured by Clontech) was used and a single-stranded cDNA was synthesized using a SUPERSCRIPT First-Stranded Synthesis System for RT-PCR (manufactured by Gibco). GPR4 cDNA was prepared by PCR using a solution (5 μl) where said single-stranded cDNA was diluted with water to an extent of 250-fold as a template and synthetic DNA having nucleotide sequences represented by SEQ ID NO: 7 and NO: 8 as a GPR4 gene-specific primer. Sequence of the GPR4 gene-specific primer was designed on the basis of sequence information of GPR4 gene (GenBank Accession No. U21051). With regard to an enzyme, PfuTurbo DNA Polymerase (manufactured by Stratagene) was used. With regard to a buffer for conducting the PCR, a buffer of 10-fold concentration attached to the enzyme was used. The PCR was conducted by treating at 95° C. for 5 minutes and conducting 30 cycles of reaction each comprising at 94° C. for 1 minute, at 60° C. for 1 minute and at 72° C. for 1 minute using a thermal cycler DNA engine (manufactured by MJ Research).
2 μg of plasmid pAGal9-GPR4 with inducible expression of GPR4 and 2 μg of reporter plasmid pACREpluc were co-transferred into 6×10^6 cell of KJMGER8 by the above-mentioned electroporation. The transformants were suspended in 8 ml of an RPMI 1640-ITPSG medium and cultured in a CO2 incubator at 37° C. for 24 hours. After the cultivation, blasticidin S (2.0 μg/ml), hygromycin B (300 μg/ml) and geneticin (500 μg/ml) were added and cultivation was carried-out for 14 days more, and stable transformants (called GPR4 assay cells) were obtained. The transformants were subcultured in an RPMI 1640-ITPSG medium containing blasticidin S (2.0 μg/ml), hygromycin B (300 μg/ml) and geneticin (500 μg/ml).

IC50 [4] [nM] | SMILES | airway hyperreactivity suppressed as compared with the positive control group [1] [%] | AUC of airway hyperreactivity [1] | Eosinophil numbers in bronchoalveolar lavage fluid [3] | eosinophil numbers decreased as compared with the positive control group [3] [%] | further results
4 | CCc1nc2c(C)cc(C)nc2n1Cc1ccc2c(c1)CCc1cc(CN3CCN(C)CC3)ccc1N2 [Compound 1, 2-(2-Ethyl-5,7-dimethyl-3H-imidazo[4,5-b]pyridin-3-ylmethyl)-8-(4-methylpiperazin-1-ylmethyl)-10,11-dihydro-5H-dibenz[b,f]azepine] | 60 | 243.23±48.7 | 0.92±0.26 ×10^5 per mouse | 67 | bronchoconstriction suppressed as compared with the positive control group ([2]; 30 mg/kg intraperitoneally): 105%; bronchoconstriction suppressed as compared with the positive control group ([2]; 100 mg/kg orally): 44%; AUC0-30min of the bronchoconstriction ([2]; 30 mg/kg intraperitoneally before antigen inhalation): 14.60±0.46; AUC0-30min of the bronchoconstriction ([2]; 100 mg/kg orally 1 hour before antigen inhalation): 16.85±0.84
3.2 | CCc1nc2c(C)cc(C)nc2n1Cc1ccc2c(c1)CCc1cc(CN3CC=CCC3)ccc1N2 [Compound 2, 2-(2-Ethyl-5,7-dimethyl-3H-imidazo[4,5-b]pyridin-3-ylmethyl)-8-(1,2,5,6-tetrahydropyridin-1-ylmethyl)-10,11-dihydro-5H-dibenz[b,f]azepine] | – | – | – | – | –
2.3 | CCc1nc2c(C)cc(C)nc2n1Cc1ccc2c(c1)CCc1cc(CN3CCCC3)ccc1N2 [Compound 3, 2-(2-Ethyl-5,7-dimethyl-3H-imidazo[4,5-b]pyridin-3-ylmethyl)-8-(pyrrolidin-1-ylmethyl)-10,11-dihydro-5H-dibenz[b,f]azepine] | – | – | – | – | –
5.8 | CCc1nc2c(C)cc(C)nc2n1Cc1ccc2c(c1)CCc1cc(CN3CCOCC3)ccc1N2 [Compound 4, 2-(2-Ethyl-5,7-dimethyl-3H-imidazo[4,5-b]pyridin-3-ylmethyl)-8-morpholinomethyl-10,11-dihydro-5H-dibenz[b,f]a zepine] | – | – | – | – | –
14 | CCc1nc2c(C)cc(C)nc2n1Cc1ccc2c(c1)CCc1cc(CN3CC(C)CC(C)C3)ccc1N2 (centres unmarked) [Compound 5] | – | – | – | – | –
– | C[C@]12C=CC(=O)C=C1CC[C@@H]1[C@@H]2[C@@H](O)C[C@@]2(C)[C@H]1CC[C@]2(O)C(=O)CO [prednisolone, reference compound] | 43 | 269.12±46.7 | 0.76±0.25 ×10^5 per mouse | 73 | –
